Source: the supplement of paper PMC10307832

How the values were obtained:
Test in all cases: relative viability (nuclei count vs DMSO), 5 days (fraction); higher = more cells survive
[1] = compound: C1=CC=C(C(=C1)C2=CC=C(C=C2)C3=CSC4=C3C(=C(C(=O)N4)C#N)O)O + CS(=O)(=O)CCNCc1ccc(-c2ccc3ncnc(Nc4ccc(OCc5cccc(F)c5)c(Cl)c4)c3c2)o1 [Lapatinib] (partner 2 µM)
How it was run: (§1)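 Cells from lung cancer lines were seeded into 1536-well plates and, one day later, dosed by pin tool. Treatments were either a single drug or a fixed dose of an anchor drug with five library-drug doses (not always all listed) in √10 steps. After 5 days, nuclei were stained in a one-step fixation (final 0.05% Triton X-100, 1% formaldehyde, 1 ug/ml Hoechst) and counted on 4× images, and relative viability is the treated-to-vehicle nuclei ratio, as the median of duplicate plates.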

[2] = compound: C1=CC=C(C(=C1)C2=CC=C(C=C2)C3=CSC4=C3C(=C(C(=O)N4)C#N)O)O + CC1(C)CCC(c2ccc(Cl)cc2)=C(CN2CCN(c3ccc(C(=O)NS(=O)(=O)c4ccc(N[C@H](CCN5CCOCC5)CSc5ccccc5)c(S(=O)(=O)C(F)(F)F)c4)cc3)CC2)C1 [Navitoclax] (partner 0.5 µM)
How it was run: as §1

TGX 221 + Bortezomib = compound: CC1=CN2C(=O)C=C(N=C2C(=C1)C(C)NC3=CC=CC=C3)N4CCOCC4 [TGX 221] + CC(C)C[C@H](NC(=O)[C@H](Cc1ccccc1)NC(=O)c1cnccn1)B(O)O [Bortezomib] (partner 0.002 µM)
How it was run: as §1

TGX 221 + Linsitinib = compound: CC1=CN2C(=O)C=C(N=C2C(=C1)C(C)NC3=CC=CC=C3)N4CCOCC4 [TGX 221] + C[C@]1(O)C[C@@H](c2nc(-c3ccc4ccc(-c5ccccc5)nc4c3)c3c(N)nccn32)C1 [Linsitinib] (partner 1 µM)
How it was run: as §1

Row | Cell Line | relative viability ([1]; first compound 0.08 µM) | relative viability ([1]; first compound 0.253 µM) | relative viability ([1]; first compound 0.8 µM) | relative viability ([1]; first compound 2.53 µM) | relative viability ([1]; first compound 8 µM) | relative viability ([2]; first compound 0.08 µM) | relative viability ([2]; first compound 0.253 µM) | relative viability ([2]; first compound 0.8 µM) | relative viability ([2]; first compound 2.53 µM) | relative viability ([2]; first compound 8 µM) | relative viability (TGX 221 + Bortezomib; first compound 0.08 µM) | relative viability (TGX 221 + Bortezomib; first compound 0.253 µM) | relative viability (TGX 221 + Bortezomib; first compound 0.8 µM) | relative viability (TGX 221 + Bortezomib; first compound 2.53 µM) | relative viability (TGX 221 + Bortezomib; first compound 8 µM) | relative viability (TGX 221 + Linsitinib; first compound 0.08 µM) | relative viability (TGX 221 + Linsitinib; first compound 0.253 µM) | relative viability (TGX 221 + Linsitinib; first compound 0.8 µM) | relative viability (TGX 221 + Linsitinib; first compound 2.53 µM) | relative viability (TGX 221 + Linsitinib; first compound 8 µM)
1 | NCI-H1703 | 0.896 | 1.2 | 0.945 | 1.16 | 0.939 | 0.989 | 1.04 | 1.2 | 0.93 | 0.962 | 0.244 | 0.323 | 0.305 | 0.234 | 0.281 | 0.678 | 0.522 | 0.48 | 0.487 | 0.636
2 | NCI-H838 | 0.659 | 1.11 | 0.973 | 0.887 | 0.872 | 1.16 | 1.07 | 1.22 | 1.12 | 0.979 | 0.751 | 0.853 | 0.713 | 0.712 | 0.544 | 0.917 | 0.819 | 0.841 | 0.836 | 0.618
3 | NCI-H322M | 0.621 | 0.616 | 0.569 | 0.563 | 0.589 | 1.35 | 1.24 | 1.03 | 1.32 | 1.09 | 1.15 | 1.09 | 1.15 | 1.18 | 1.11 | 0.849 | 0.732 | 0.708 | 0.698 | 1.02
4 | NCI-H1299 | 0.923 | 0.929 | 0.987 | 0.961 | 0.948 | 1.12 | 1.02 | 1.04 | 1.1 | 1.07 | 0.985 | 1 | 0.989 | 1.03 | 0.948 | 0.976 | 1.04 | 1.04 | 0.902 | 0.969
5 | EMC-BAC-2 | 0.76 | 1 | 0.917 | 0.894 | 0.812 | 0.963 | 1.28 | 1.2 | 1.46 | 0.774 | 1.02 | 1.02 | 1.08 | 1.03 | 1.07 | 0.814 | 0.72 | 0.737 | 0.743 | 0.692
6 | HARA | – | 1.03 | 0.821 | 0.762 | 0.738 | – | 1.41 | 1.19 | 1.15 | 1.02 | 1.13 | 1.07 | 1.05 | 1.09 | 1.2 | 1.05 | 0.853 | 0.883 | 0.766 | 0.754
7 | NCI-H727 | 0.834 | 0.844 | 0.927 | 0.589 | 0.757 | 0.426 | 0.478 | 0.48 | 0.409 | 0.479 | 0.827 | 0.829 | 1.03 | 0.737 | 0.893 | 0.406 | 0.29 | 0.264 | 0.269 | 0.403
8 | COR-L 105 | 0.4 | 0.353 | 0.34 | 0.344 | 0.345 | 0.951 | 0.776 | 0.829 | 0.704 | 0.784 | 0.832 | 0.816 | 1.01 | 0.698 | 0.736 | 0.986 | 0.828 | 1.02 | 0.537 | 0.554
9 | 201T | 0.979 | 1.03 | 1.01 | 0.849 | 1.12 | 1.25 | 1.18 | 1.19 | 1.18 | 1.26 | – | 1.15 | 1.08 | 1.05 | 0.996 | – | 0.957 | 0.995 | 0.909 | 0.824
10 | NCI-H460 | – | 1.09 | 0.868 | 1.24 | 0.747 | – | 0.414 | 1.43 | 1.31 | 0.271 | 0.724 | 0.922 | 1.02 | 1.11 | 1 | 0.677 | 0.641 | 0.693 | 0.622 | 0.592
11 | LOU-NH91 | 0.751 | 0.807 | 0.788 | 0.601 | 0.738 | 0.693 | 0.722 | 0.658 | 0.638 | 0.551 | 0.492 | 0.52 | 0.514 | 0.381 | 0.51 | 0.974 | 0.912 | 0.931 | 0.917 | 0.794
12 | LU99A | 0.97 | 1.09 | 1.13 | 1.12 | 0.955 | 0.64 | 0.878 | 0.804 | 0.791 | 0.769 | 1.06 | 0.887 | 1.04 | 1.04 | 1.09 | 0.478 | 0.481 | 0.512 | 0.536 | 0.492
13 | SW 1573 | 0.991 | 1.12 | 1.21 | 1.11 | 0.862 | 0.965 | 0.902 | 0.901 | 0.976 | 0.784 | 0.91 | 1.09 | 1.04 | 0.945 | 0.839 | 0.686 | 0.747 | 0.685 | 0.768 | 0.544
14 | EBC-1 | 0.265 | 0.226 | 0.223 | 0.209 | 0.173 | 0.353 | 0.371 | 0.425 | 0.37 | 0.348 | 0.523 | 0.51 | 0.619 | 0.4 | 0.408 | 0.911 | 0.726 | 0.822 | 0.687 | 0.702
15 | NCI-H596 | 0.866 | 1.17 | 1.16 | 0.999 | 1.02 | 0.791 | 1.32 | 0.955 | 0.951 | 0.787 | 1.17 | 1.21 | 0.938 | 0.871 | 0.948 | 1.13 | 0.913 | 0.972 | 0.972 | 0.985
16 | NCI-H1437 | 0.72 | 0.794 | 0.772 | 0.891 | 0.527 | 1.06 | 1.16 | 1.18 | 1.13 | 0.881 | 0.535 | 0.53 | 0.522 | 0.414 | 0.486 | 0.973 | 0.958 | 1.04 | 0.936 | 0.629
